Key:
[1] = system: HT29 cells, phospho-p38 western blot, 24 h; assay: phospho-p38 level change, either direction, late-stage follow-up, counter-screen for KLF5 inhibitor project, HT29 cells, chemiluminescent western blot, powder samples (AID 588658); conditions: measured here: phospho-p38 fold change vs DMSO; at 10 µM
[2] = biological target: Mitogen-activated protein kinase 14 (Homo sapiens) (UniProt Q16539); assay: as above; conditions: HT29 cells, phospho-p38 western blot, 24 h; at 10 µM; stronger effect = higher value
Chain of Mitogen-activated protein kinase 14 (Homo sapiens) (Q16539 whole entry, looked up): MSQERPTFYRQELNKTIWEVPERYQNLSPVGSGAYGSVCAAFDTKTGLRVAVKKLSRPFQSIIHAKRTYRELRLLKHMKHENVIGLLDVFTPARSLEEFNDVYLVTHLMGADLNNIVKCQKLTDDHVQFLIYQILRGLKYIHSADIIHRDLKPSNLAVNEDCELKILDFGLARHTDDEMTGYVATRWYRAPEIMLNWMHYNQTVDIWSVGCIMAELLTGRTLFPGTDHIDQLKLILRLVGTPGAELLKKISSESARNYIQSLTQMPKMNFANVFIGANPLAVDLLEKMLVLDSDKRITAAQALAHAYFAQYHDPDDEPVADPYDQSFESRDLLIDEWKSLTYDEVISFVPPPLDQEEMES

CN(C(=O)CNC(=O)/C=C/c1cccc(Cl)c1)C1CCS(=O)(=O)CC1
fold change [1]: 3.93
inhibition [2]: -293%

CN(C(=O)CNC(=O)/C=C/c1cccc(Cl)c1)C1CCS(=O)(=O)C1 (stereo unspecified)
fold change [1]: 3.85
inhibition [2]: -285%

CN(C(=O)COC(=O)/C=C/c1cccc([N+](=O)[O-])c1)C1CCS(=O)(=O)C1 (stereo unspecified)
fold change [1]: 1.85
inhibition [2]: -85.3%

From PubChem BioAssay AID588658 (The Scripps Research Institute Molecular Screening Center, 2011)
